What all share (assay): ≥ marks a high value that may be exact or a test limit, other limits are often not marked, values filed in µg/mL are converted to µM
Experiment [1] concerns Staphylococcus aureus DBFIQ S21.
Experiment [2] concerns Listeria monocytogenes DBFIQ LM3.
Experiment [3] has as its system Staphylococcus aureus ATCC 502A.
Experiment [4] relates to Micrococcus luteus ATCC 7468.
In experiment [5] the test system is Acinetobacter baumannii ATCC 15308.
Experiment [6] deals with Escherichia coli BL2.
The test system of experiment [7] is Pseudomonas sp. ATCC 15915.
The test system of experiment [8] is Enterococcus faecium ATCC 19434.
For experiment [9], the system named is Escherichia coli M7859.
The test system of experiment [10] is Staphylococcus saprophyticus M4070.
Experiment [11] deals with Enterococcus faecium PZAP 95.
Experiment [12] has as its system Staphylococcus hominis M2967.
The subject of experiment [13] is Staphylococcus cohnii.
The test system of experiment [14] is Klebsiella pneumoniae M5825.
Experiment [15] deals with Enterococcus faecium M2304.
Experiment [16] concerns Klebsiella pneumoniae PFAV 3.
The test system of experiment [17] is Klebsiella pneumoniae M9375.
Experiment [18] relates to Staphylococcus warneri.
Experiment [19] relates to Staphylococcus epidermidis M2921.
In experiment [20] the test system is Enterococcus faecalis M4899.
The test system of experiment [21] is Pseudomonas aeruginosa PACO12.
Experiment [22] has as its system Staphylococcus hominis M2973.
For experiment [23], the system named is Staphylococcus aureus ATCC 25923.
Experiment [24] concerns Escherichia coli M9884.
Experiment [25] concerns Enterococcus faecalis M6983.
The subject of experiment [26] is Staphylococcus aureus P33.
In experiment [27] the test system is Enterococcus faecalis ATCC 29212.
For experiment [28], the system named is Klebsiella pneumoniae M9491.
Experiment [29] concerns Staphylococcus haemolyticus M2976.
For experiment [30], the system named is Klebsiella pneumoniae M11245.
The subject of experiment [31] is Pseudomonas aeruginosa ATCC 27853.
Experiment [32] deals with Acinetobacter sp. M5949.
Experiment [33] relates to Acinetobacter sp. M9665.
Experiment [34] concerns Escherichia coli M9209.
For experiment [35], the system named is Acinetobacter sp. M13523.
For experiment [36], the system named is Escherichia coli ATCC 25922.
Experiment [37] deals with Acinetobacter sp. M9013.
The subject of experiment [38] is Escherichia coli M5306.
For experiment [39], the system named is Staphylococcus epidermidis M2923.
Experiment [40] deals with Enterococcus gallinarum M2723.
Experiment [41] deals with Pseudomonas aeruginosa M11005.
Experiment [42] has as its system Enterococcus faecalis ATCC 51299.
The subject of experiment [43] is Staphylococcus aureus M6784.
Experiment [44] relates to Vibrio parahaemolyticus CGMCC 1.1615.
The subject of experiment [45] is Corynebacterium glutamicum CGMCC 1.1886.
The subject of experiment [46] is Vibrio alginolyticus CGMCC 1.1833.
Experiment [47] has as its system Aeromonas hydrophila CGMCC 1.0927.
In experiment [48] the test system is Staphylococcus aureus CGMCC 1.0363.

Values after ≈ are worked out from the molar mass of the structure shown. Where only a bound is given, the exact number is not on record here.

As a reminder, the MIC is the lowest concentration that inhibits growth of the organism.

Regarding `CC[C@H](C)[C@H](NC(=O)[C@H](C)NC(=O)[C@@H](NC(=O)[C@H](C)NC(=O)CNC(=O)[C@H](CCSC)NC(=O)[C@H](CCC(N)=O)NC(=O)[C@H](CC(C)C)NC(=O)[C@H](CO)NC(=O)[C@@H](N)Cc1ccc(O)cc1)[C@@H](C)O)C(=O)N[C@@H](CCCCN)C(=O)N[C@@H](CCC(N)=O)C(=O)N[C@H](C(=O)N[C@@H](CCCCN)C(=O)N[C@@H](CCCCN)C(=O)N[C@@H](CC(C)C)C(=O)N[C@@H](Cc1ccccc1)C(=O)N[C@@H](CCCCN)C(=O)N[C@@H](CCCCN)C(=O)N[C@@H](CCCCN)C(=O)NCC(=O)NCC(N)=O)C(C)C` [YSLQMGATAIKQVKKLFKKKGG], the MIC in experiment [1] came to 6.6 µM (≈ 16 µg/mL); in experiment [2], 1.7 µM (≈ 4.12 µg/mL).
For the compound `CC[C@H](C)[C@H](NC(=O)[C@H](C)NC(=O)[C@H](CCCN=C(N)N)NC(=O)[C@H](CCSC)NC(=O)[C@H](C)NC(=O)[C@@H](NC(=O)[C@@H](N)[C@@H](C)O)[C@@H](C)CC)C(=O)N[C@@H](CC(N)=O)C(=O)N[C@@H](CC(N)=O)C(=O)N[C@@H](Cc1ccc(O)cc1)C(=O)N[C@@H](CCCN=C(N)N)C(=O)N[C@@H](Cc1c[nH]c2ccccc12)C(=O)N[C@@H](CCCN=C(N)N)C(=O)N[C@@H](CO)C(=O)N[C@@H](CCCCN)C(=O)N[C@@H](CC(N)=O)C(=O)N[C@@H](CCC(N)=O)C(=O)N[C@@H](CC(N)=O)C(=O)N[C@H](C(=O)N[C@@H](Cc1ccccc1)C(=O)N[C@@H](CC(C)C)C(=O)N[C@@H](CCCN=C(N)N)C(=O)O)[C@@H](C)O` [TIAMRAINNYRWRSKNQNTFLR], the MIC in experiment [3] turned out to be 1.5 µM (≈ 4.13 µg/mL); in experiment [4], 7 µM (≈ 19.3 µg/mL); in experiment [5] it was 1.1 µM (≈ 3.03 µg/mL); in experiment [6], 7 µM (≈ 19.3 µg/mL); in [7], 7 µM (≈ 19.3 µg/mL); in experiment [8], 7 µM (≈ 19.3 µg/mL).
For the compound `CC[C@H](C)[C@H](NC(=O)[C@H](CCCN=C(N)N)NC(=O)[C@H](CCC(N)=O)NC(=O)[C@@H](NC(=O)[C@@H](NC(=O)[C@@H](N)CCCN=C(N)N)[C@@H](C)CC)C(C)C)C(=O)N[C@@H](CCCCN)C(=O)N[C@@H](CCCCN)C(=O)N[C@@H](Cc1c[nH]c2ccccc12)C(=O)N[C@@H](CC(C)C)C(=O)N[C@@H](CC(C)C)C(=O)N[C@@H](CCCCN)C(=O)N[C@@H](Cc1c[nH]c2ccccc12)C(=O)N[C@@H](CCCCN)C(=O)N[C@@H](CCCCN)C(=O)N[C@@H](CC(C)C)C(=O)NCC(=O)N[C@@H](Cc1ccc(O)cc1)C(N)=O` [RIVQRIKKWLLKWKKLGY], the minimal inhibitory concentration (MIC) in experiment [9] stood at 6.79 µM (≈ 16 µg/mL); in experiment [10], 3.39 µM (≈ 8 µg/mL); in experiment [11], 6.79 µM (≈ 16 µg/mL); in experiment [12] it was 3.39 µM (≈ 8 µg/mL); in experiment [13] it was 3.39 µM (≈ 8 µg/mL); in experiment [14], 13.6 µM (≈ 32 µg/mL). Moreover, the minimum inhibitory concentration (MIC) in [15] was 3.39 µM (≈ 8 µg/mL); in experiment [16], at least 54.3 µM; in experiment [17], 6.79 µM (≈ 16 µg/mL); in experiment [18], 3.39 µM (≈ 8 µg/mL); in experiment [19], 3.39 µM (≈ 8 µg/mL); in experiment [20], at least 109 µM. Besides, the MIC was 27.2 µM (≈ 64 µg/mL) in experiment [21]; 1.7 µM (≈ 4 µg/mL) in experiment [22]; 13.6 µM (≈ 32 µg/mL) in experiment [23]; 13.6 µM (≈ 32 µg/mL) in experiment [24]; at least 54.3 µM in [25]; 27.2 µM (≈ 64 µg/mL) in experiment [26]. Besides, the MIC in [27] is 54.3 µM (≈ 128 µg/mL); in experiment [28], 27.2 µM (≈ 64 µg/mL); in experiment [29] it was 3.39 µM (≈ 8 µg/mL); in experiment [30] it was 3.39 µM (≈ 8 µg/mL); in experiment [31], 27.2 µM (≈ 64 µg/mL); in [32] it was at least 109 µM. Moreover, the MIC is at least 54.3 µM in experiment [33]; at least 54.3 µM in experiment [34]; 27.2 µM (≈ 64 µg/mL) in experiment [35]; 13.6 µM (≈ 32 µg/mL) in [36]; 13.6 µM (≈ 32 µg/mL) in experiment [37]; 27.2 µM (≈ 64 µg/mL) in experiment [38]. Also, the MIC is 6.79 µM (≈ 16 µg/mL) in experiment [39]; 6.79 µM (≈ 16 µg/mL) in experiment [40]; at least 54.3 µM in experiment [41]; at least 109 µM in experiment [42]; 13.6 µM (≈ 32 µg/mL) in experiment [43].
In the case of `CSCC[C@H](NC(=O)[C@H](CO)NC(=O)[C@H](CC(C)C)NC(=O)[C@H](Cc1cnc[nH]1)NC(=O)[C@H](CO)NC(=O)[C@@H](N)CCC(N)=O)C(=O)N[C@H]1CSSC[C@@H](C(=O)N[C@@H](CCCN=C(N)N)C(=O)N[C@@H](Cc2ccccc2)C(=O)O)NC(=O)[C@@H]2CSSC[C@@H]3NC(=O)[C@@H]4CSSC[C@H](NC(=O)[C@H](C(C)C)NC(=O)[C@H](CO)NC1=O)C(=O)N[C@@H](CSSC[C@H](NC(=O)CNC(=O)[C@H](CCCCN)NC(=O)[C@H](Cc1ccc(O)cc1)NC(=O)[C@H](CC(N)=O)NC(=O)[C@H](CCCCN)NC3=O)C(=O)NCC(=O)N[C@@H](Cc1ccccc1)C(=O)N2)C(=O)N[C@@H](CC(N)=O)C(=O)N4` [QSHLSMCSVCCNCCKNYKGCGFCCRF], the MIC in [44] was at least 48 µM; in experiment [45] it was 12 µM (≈ 35 µg/mL); in [46] it was at least 48 µM; in experiment [47] it was 12 µM (≈ 35 µg/mL); in experiment [48], 12 µM (≈ 35 µg/mL); in experiment [36], 24 µM (≈ 70 µg/mL).

Source of the values: DBAASP.
